Assay results as given in US8168656B2, “Indoleacetic acid and indenacetic acid derivatives as therapeutic agents with reduced gastrointestinal toxicity” (Vanderbilt University, priority 2009, dated 2012).

Target: T1, mCOX-2^V349L (Mus musculus, UniProt Q05769, V335L)
T1 construct: made in house; host or cells: Sf9 insect cells (baculovirus, pVL1393)
T1 sequence (Q05769 18-604 V335L): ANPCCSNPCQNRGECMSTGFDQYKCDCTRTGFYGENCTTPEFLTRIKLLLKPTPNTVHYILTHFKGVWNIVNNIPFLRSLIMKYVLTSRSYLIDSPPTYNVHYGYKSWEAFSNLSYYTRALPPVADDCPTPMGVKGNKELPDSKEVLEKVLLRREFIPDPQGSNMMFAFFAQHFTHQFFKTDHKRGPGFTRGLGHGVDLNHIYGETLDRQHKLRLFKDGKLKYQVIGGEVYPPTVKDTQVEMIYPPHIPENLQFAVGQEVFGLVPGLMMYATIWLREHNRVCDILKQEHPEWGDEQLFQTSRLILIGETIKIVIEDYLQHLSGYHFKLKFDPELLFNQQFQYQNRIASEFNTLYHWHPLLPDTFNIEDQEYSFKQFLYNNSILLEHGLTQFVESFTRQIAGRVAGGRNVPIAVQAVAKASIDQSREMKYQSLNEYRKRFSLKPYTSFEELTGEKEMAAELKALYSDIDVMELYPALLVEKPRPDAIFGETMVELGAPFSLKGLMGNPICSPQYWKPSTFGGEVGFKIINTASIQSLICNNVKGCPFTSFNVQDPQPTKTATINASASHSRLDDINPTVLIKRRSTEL
Assay: Kinetics of time-dependent COX inhibition
Assay type: biochemical, murine
Description: Assays were terminated and analyzed for substrate consumption by thin layer chromatography. […] Time-dependent COX inhibition reactions were pre-incubated at 37° C. for varying lengths of time (0-30 minutes) with various concentrations of inhibitor. All reactions were performed with [1-^14C]-AA for 30 seconds at 37° C.; reactions were terminated and analyzed as described above.
To ensure that pseudo-first-order conditions were maintained, the enzymatic oxygenation reactions were terminated after 30 seconds to prevent extensive consumption of substrate. The decline of substrate conversion at different INDO concentrations was plotted against the pre-incubation times and fit to a single exponential decay with a plateau to determine kobs (FIG. 2).
The rate constant k2 represents the limiting forward rate constant for functionally irreversible inhibition, and KI corresponds to the inhibitor concentration that yields a rate equal to half of the limiting rate.

**Q.** Which “remaining activity approached (plateau) in time-dependent inhibition curves” value (V349L) does the source give for `COc1ccc2c(c1)c(CC(=O)O)cn2C(=O)c1ccc(Cl)cc1` [DM-INDO, 2-Des-methylindomethacin] here?
**A.** about 30%

**Q.** And the “higher concentrations required for V349L to achieve similar inhibition as wild type mCOX-2” value (V349L versus wild type mCOX-2)?
**A.** ~10 fold

**Q.** And the “k−2 (y-intercept of linear regression analysis)” value (V349L, graph did not plateau, linear regression)?
**A.** 0.0025 ± 0.0003 s⁻¹
